Laboratory results published in US20250213533A1 (GH RESEARCH IRELAND LIMITED, priority 2022, published 2025).

Test system: patients with postpartum depression (PPD)
Assay: Clinical trial of inhaled 5-MeO-DMT (IDR) in postpartum depression; one patient so far, 6 mg then 12 mg
Settings: 1 patient
Procedure: The single-arm, open-label clinical trial will involve 15 adult female patients with clinically diagnosed postpartum depression (PPD).
The second dose (12 mg) will only be administered if: • a. […] The 6 mg dose was safe and well-tolerated according to the investigator, • c. Any psychoactive effects (PsE) of the prior dose have subsided, and • d. Pre-dose vital parameters and forced expiratory volume in one second (FEV1) are in normal range, or if outside of the normal range, are not clinically significant according to the investigator. • 3. Similarly, a third dose (18 mg) will only be administered if: • a. […] The 12 mg dose was safe and well-tolerated according to the investigator, and • c. Any PsE of the prior dose have subsided, and • d. Pre-dose vital parameters and forced expiratory volume in one second (FEV1) are in normal range, or if outside of the normal range, are not clinically significant according to the investigator.
The patients will be assessed for a peak psychedelic experience (based on a patient-scored visual analogue scale, the PE scale), sedation, and other endpoints after dosing. Follow-up visits are planned for Day 1, and Day 7 after the dosing day.
The following criteria must be met by all patients considered for clinical trial participation: • 1. Is female and in the age range between 18 and 45 years (inclusive) at screening. • 2. Has a body mass index (BMI) in the range of 18.5 and 35 kg/m^2 (inclusive) at screening. • 3. Meets the trial criteria for PPD as assessed by a trial psychiatrist or registered psychologist: • a. Diagnosis of Major Depressive Disorder without psychotic features, confirmed by the Mini-International Neuropsychiatric Interview (MINI), with peri-partum onset that began no earlier than gestation and no later than the first 4 weeks postpartum. • b. Has a Montgomery-Åsberg Depression Rating Scale (MADRS) total score of equal to or greater than 28 at screening and pre-dose on Day 0. • 6. […] Patients must have a negative pregnancy test at screening and on the pre-test day (Day −1). • 5. Is willing to delay start of other antidepressant or anxiety medication until after the end of the trial at Day 7 and agrees to keep any psychotherapy unchanged during the trial.
A potential patient who meets any of the following key exclusion criteria will be excluded from participation in this trial: • 1. Has, based on history, psychiatric assessment, and evaluation of the MINI, a current or prior diagnosis of bipolar disorder, a manic or hypomanic episode, a psychotic disorder, Major Depressive Disorder (MDD) or other mood disorder with psychotic features, obsessive compulsive disorder, post-traumatic stress disorder (PTSD), autism spectrum disorder, borderline personality disorder, schizophrenia, delusional disorder, paranoid personality disorder, schizoaffective disorder, clinically significant intellectual disability, or any other psychiatric comorbidity that renders the patient unsuitable for the trial according to the investigator's judgment. • 2. Has one or more first or second degree relatives with a current or previously diagnosed bipolar disorder, psychotic disorder or other mood disorder (including MDD) with psychotic features. • 3. Is in the judgement of a trial psychiatrist or registered psychologist, at significant risk for suicide based on history, psychiatric assessment, and evaluation of suicidal ideation and suicidal behaviour based on the Columbia-Suicide Severity Rating Scale (C-SSRS). • 4. Has taken anti-depressive medication within 14 days or 5 half-lives (whichever is longer) prior to dosing (exception: within the last 5 weeks in the case of fluoxetine). • 5.

COc1ccc2[nH]cc(CCN(C)C)c2c1 [5-MeO-DMT]
BIMF item 11 (take a little time each week to do something for myself) score (Day 7): 6
BIMF item 12 (taking good care of my baby's physical needs) score (Day 7): 6
BIMF item 13 (taking good care of my physical needs) score (Day 7): 5
BIMF item 14 (good decisions about my baby's health and well being) score (Day 7): 6
BIMF item 15 (My baby and I are getting into a routine) score (Day 7): 6
BIMF item 17 (able to take care of my baby and my other responsibilities) score (Day 7): 5
BIMF item 18 (Anxiety or worry often interferes with my mothering ability) score (Day 7): 5
BIMF item 19 (getting better at taking care of my baby) score (Day 7): 1
BIMF item 20 (satisfied with the job I am doing as a new mother) score (Day 7): 5
BPRS Anxiety improvement (Day 7): 6
BPRS Anxiety score (Day 7): 1
BPRS Blunted affect improvement (Day 7): 0
BPRS Blunted affect score (Day 7): 1
BPRS Conceptual disorganization improvement (Day 7): 0
BPRS Conceptual disorganization score (Day 7): 1
BPRS Depressive Mood improvement (Day 7): 5
BPRS Depressive Mood score (Day 7): 1
BPRS Disorientation improvement (Day 7): 0
BPRS Disorientation score (Day 7): 1
BPRS Emotional withdrawal improvement (Day 7): 4
BPRS Emotional withdrawal score (Day 7): 1
BPRS Excitement improvement (Day 7): 1
BPRS Excitement score (Day 7): 1
BPRS Grandiosity improvement (Day 7): 0
BPRS Grandiosity score (Day 7): 1
BPRS Guilt feelings improvement (Day 7): 5
BPRS Guilt feelings score (Day 7): 1
BPRS Hallucinatory behaviour improvement (Day 7): 0
BPRS Hallucinatory behaviour score (Day 7): 1
BPRS Hostility improvement (Day 7): 0
BPRS Hostility score (Day 7): 1
BPRS Mannerisms and Posturing improvement (Day 7): 0
BPRS Mannerisms and Posturing score (Day 7): 1
BPRS Motor retardation improvement (Day 7): 0
BPRS Motor retardation score (Day 7): 1
BPRS Somatic Concern improvement (Day 7): 5
BPRS Somatic Concern score (Day 7): 1
BPRS Suspiciousness improvement (Day 7): 0
BPRS Suspiciousness score (Day 7): 1
BPRS Tension improvement (Day 7): 5
BPRS Tension score (Day 7): 1
BPRS Uncooperativeness improvement (Day 7): 0
BPRS Uncooperativeness score (Day 7): 1
BPRS Unusual Thought Content improvement (Day 7): 0
BPRS Unusual Thought Content score (Day 7): 1
MADRS Apparent sadness improvement (Day 7): 5
MADRS Apparent sadness score (Day 7): 0
MADRS Concentration Difficulties improvement (Day 7): 0
MADRS Concentration Difficulties score (Day 7): 0
MADRS Inability to Feel improvement (Day 7): 3
MADRS Inability to Feel score (Day 7): 0
MADRS Inner Tension improvement (Day 7): 4
MADRS Inner Tension score (Day 7): 1
MADRS Lassitude improvement (Day 7): 3
MADRS Lassitude score (Day 7): 0
MADRS Pessimistic Thoughts improvement (Day 7): 4
MADRS Pessimistic Thoughts score (Day 7): 0
MADRS Reduced Sleep improvement (Day 7): 5
MADRS Reduced Sleep score (Day 7): 0
MADRS Reduced appetite improvement (Day 7): 0
MADRS Reduced appetite score (Day 7): 0
MADRS Reported sadness improvement (Day 7): 4
MADRS Reported sadness score (Day 7): 0
MADRS Suicidal Thoughts improvement (Day 7): 0
MADRS Suicidal Thoughts score (Day 7): 0
BIMF item 10 (trust my own feelings (instincts) in taking care of my baby) Δ (Day 7 vs Day 0): 1
BIMF item 11 (take a little time each week to do something for myself) Δ (Day 7 vs Day 0): 1
BPRS Anxiety improvement (Discharge): 6
BPRS Anxiety score (Discharge): 1
BPRS Blunted affect improvement (Discharge): 0
BPRS Conceptual disorganization improvement (Discharge): 0
BPRS Depressive Mood improvement (Discharge): 5
BPRS Depressive Mood score (Discharge): 1
BPRS Disorientation improvement (Discharge): 0
BPRS Emotional withdrawal improvement (Discharge): 4
BPRS Emotional withdrawal score (Discharge): 1
BPRS Excitement improvement (Discharge): 1
BPRS Excitement score (Discharge): 1
BPRS Grandiosity improvement (Discharge): 0
BPRS Guilt feelings improvement (Discharge): 5
BPRS Guilt feelings score (Discharge): 1
BPRS Hallucinatory behaviour improvement (Discharge): 0
BPRS Hostility improvement (Discharge): 0
BPRS Mannerisms and Posturing improvement (Discharge): 0
BPRS Motor retardation improvement (Discharge): 0
BPRS Somatic Concern improvement (Discharge): 5
BPRS Somatic Concern score (Discharge): 1
BPRS Suspiciousness improvement (Discharge): 0
BPRS Tension score (Discharge): 1
BPRS Uncooperativeness improvement (Discharge): 0
BPRS Unusual Thought Content improvement (Discharge): 0
BPRS Anxiety score (baseline): 7
BPRS Blunted affect score (baseline): 1
BPRS Conceptual disorganization score (baseline): 1
BPRS Depressive Mood score (baseline): 6
BPRS Disorientation score (baseline): 1
BPRS Emotional withdrawal score (baseline): 5
BPRS Excitement score (baseline): 2
BPRS Grandiosity score (baseline): 1
BPRS Guilt feelings score (baseline): 6
BPRS Hallucinatory behaviour score (baseline): 1
BPRS Hostility score (baseline): 1
BPRS Mannerisms and Posturing score (baseline): 1
BPRS Motor retardation score (baseline): 1
BPRS Somatic Concern score (baseline): 6
BPRS Suspiciousness score (baseline): 1
BPRS Tension score (baseline): 6
BPRS Uncooperativeness score (baseline): 1
BPRS Unusual Thought Content score (baseline): 1
MADRS Apparent sadness score (baseline): 5
MADRS Inability to Feel score (baseline): 3
MADRS Inner Tension score (baseline): 5
MADRS Lassitude score (baseline): 3
MADRS Pessimistic Thoughts score (baseline): 4
MADRS Reported sadness score (baseline): 4
Total MADRS score (baseline): 29
changes in vital parameters (shortly after administration): temporary, clinically non-relevant increase in heart rate and blood pressure
